From ChEMBL document CHEMBL1201862, “PubChem BioAssay data set” (2004)
pIC50: −log10 of the molar value. Activity calls are given as the source filed them.

How the values were obtained:
[1] = molecular target: T1, Heat shock factor protein 1 (Mus musculus, UniProt P38532); test: decrease of HSF1-responsive luciferase luminescence – cell-based, NIH3T3, dose retest, confirmation (AID 2382); format: functional;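 further: NIH3T3 fibroblasts with HSF1-driven luciferase reporter stressed by proteasome inhibitor MG132; luminescence from HSF1-driven luciferase expression after 8 hours of MG132 stress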
T1 sequence (P38532 whole entry): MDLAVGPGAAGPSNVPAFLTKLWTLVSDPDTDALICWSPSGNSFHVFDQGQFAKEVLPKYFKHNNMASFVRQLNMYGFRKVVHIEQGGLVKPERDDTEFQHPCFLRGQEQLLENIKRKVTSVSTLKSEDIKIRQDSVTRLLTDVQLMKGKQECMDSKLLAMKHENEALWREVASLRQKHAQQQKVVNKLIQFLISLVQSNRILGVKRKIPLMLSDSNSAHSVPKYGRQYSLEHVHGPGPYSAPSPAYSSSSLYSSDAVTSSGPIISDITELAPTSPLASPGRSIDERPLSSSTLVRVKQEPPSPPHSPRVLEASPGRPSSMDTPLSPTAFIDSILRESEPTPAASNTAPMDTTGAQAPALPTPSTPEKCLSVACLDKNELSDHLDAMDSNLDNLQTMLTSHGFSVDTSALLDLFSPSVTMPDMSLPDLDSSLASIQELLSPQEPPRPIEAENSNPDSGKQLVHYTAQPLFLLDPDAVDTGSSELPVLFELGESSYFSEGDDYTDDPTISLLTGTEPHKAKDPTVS

[2] = molecular target: T2, E3 ubiquitin-protein ligase XIAP (Homo sapiens, UniProt P98170); test: Counter Screen using XIAP-Bir3 for Chemical Antagonists of Bir1/2 domains of IAP-family anti-apoptotic proteins. [Related pubchem assays (depositor defined):AID1018, AID1449, AID1514, AID1638, AID1749, AID1750, AID488957, AID488963]
T2 sequence (P98170 whole entry): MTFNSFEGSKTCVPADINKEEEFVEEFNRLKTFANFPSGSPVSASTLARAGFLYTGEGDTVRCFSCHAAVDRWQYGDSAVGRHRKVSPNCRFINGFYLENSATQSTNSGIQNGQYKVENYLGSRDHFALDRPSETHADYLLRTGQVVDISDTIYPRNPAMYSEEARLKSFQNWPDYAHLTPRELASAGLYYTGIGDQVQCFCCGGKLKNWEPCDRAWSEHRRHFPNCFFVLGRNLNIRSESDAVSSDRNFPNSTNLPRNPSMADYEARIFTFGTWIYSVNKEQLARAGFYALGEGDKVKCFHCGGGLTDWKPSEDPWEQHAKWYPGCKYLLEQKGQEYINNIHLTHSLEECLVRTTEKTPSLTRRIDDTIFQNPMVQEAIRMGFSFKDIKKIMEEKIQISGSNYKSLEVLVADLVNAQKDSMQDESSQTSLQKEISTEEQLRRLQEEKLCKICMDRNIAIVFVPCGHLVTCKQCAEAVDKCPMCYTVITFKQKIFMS

[3] = molecular target: T2, E3 ubiquitin-protein ligase XIAP; test: small molecules displacing peptide from XIAP – biochemical, IAP family, fluorescence polarization (AID 1018); format: functional
[4] = THP-1 cell cytotoxicity, dose response, cytotoxicity control for non-replicating M. tuberculosis project (AID 489025); format: functional
[5] = Vero E6 cell cytotoxicity, dose response, cytotoxicity control for non-replicating M. tuberculosis project, secondary assay (AID 492998); format: functional, VeroE6; conditions: Vero C1008
cells = format: functional
[6] = molecular target: T3, RNA-binding protein pos-1 (Caenorhabditis elegans, UniProt G5EF15); test: disruptors of C. elegans POS-1 RNA interaction – biochemical, fluorescence polarization, dose response (AID 1964);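 further: purified POS-1 fused to maltose binding protein made in E. coli; potency of compounds blocking POS-1 binding to fluorescent RNA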
T3 sequence (G5EF15 whole entry): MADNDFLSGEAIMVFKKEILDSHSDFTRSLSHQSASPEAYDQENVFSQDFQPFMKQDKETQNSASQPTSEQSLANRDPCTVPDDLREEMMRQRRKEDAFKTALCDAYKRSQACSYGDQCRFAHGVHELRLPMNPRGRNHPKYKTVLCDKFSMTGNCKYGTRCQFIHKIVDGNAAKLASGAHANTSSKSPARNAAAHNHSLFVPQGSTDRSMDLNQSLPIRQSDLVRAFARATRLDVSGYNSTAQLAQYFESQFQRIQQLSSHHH

[7] = molecular target: T4, Zinc finger protein mex-5 (Caenorhabditis elegans, UniProt Q9XUB2); test: potency of MEX-5 RNA-binding blockers – biochemical, C. elegans, fluorescence polarization, dose response (AID 1960)
T4 sequence (Q9XUB2 whole entry): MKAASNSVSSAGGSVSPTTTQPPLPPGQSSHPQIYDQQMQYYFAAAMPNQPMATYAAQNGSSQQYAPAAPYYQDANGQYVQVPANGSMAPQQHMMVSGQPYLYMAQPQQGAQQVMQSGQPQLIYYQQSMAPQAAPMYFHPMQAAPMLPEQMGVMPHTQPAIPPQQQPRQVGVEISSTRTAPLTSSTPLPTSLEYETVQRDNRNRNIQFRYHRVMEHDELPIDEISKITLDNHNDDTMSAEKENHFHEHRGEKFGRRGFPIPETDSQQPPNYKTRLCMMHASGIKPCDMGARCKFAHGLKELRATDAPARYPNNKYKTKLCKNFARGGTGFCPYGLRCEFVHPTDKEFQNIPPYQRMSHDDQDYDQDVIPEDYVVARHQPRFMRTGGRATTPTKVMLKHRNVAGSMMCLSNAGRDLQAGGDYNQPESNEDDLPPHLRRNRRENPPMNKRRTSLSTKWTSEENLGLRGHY

Ion channel NompC = Ion channel NompC (Danio rerio, UniProt Q7T1G6); test: Dose response cell-based high-throughput screening assay for agonists of the transient receptor potential channel N1 (TRPN1). [Related pubchem assays (depositor defined):AID1424, AID1448]; format: functional
Ion channel NompC, sequence (Q7T1G6 whole entry): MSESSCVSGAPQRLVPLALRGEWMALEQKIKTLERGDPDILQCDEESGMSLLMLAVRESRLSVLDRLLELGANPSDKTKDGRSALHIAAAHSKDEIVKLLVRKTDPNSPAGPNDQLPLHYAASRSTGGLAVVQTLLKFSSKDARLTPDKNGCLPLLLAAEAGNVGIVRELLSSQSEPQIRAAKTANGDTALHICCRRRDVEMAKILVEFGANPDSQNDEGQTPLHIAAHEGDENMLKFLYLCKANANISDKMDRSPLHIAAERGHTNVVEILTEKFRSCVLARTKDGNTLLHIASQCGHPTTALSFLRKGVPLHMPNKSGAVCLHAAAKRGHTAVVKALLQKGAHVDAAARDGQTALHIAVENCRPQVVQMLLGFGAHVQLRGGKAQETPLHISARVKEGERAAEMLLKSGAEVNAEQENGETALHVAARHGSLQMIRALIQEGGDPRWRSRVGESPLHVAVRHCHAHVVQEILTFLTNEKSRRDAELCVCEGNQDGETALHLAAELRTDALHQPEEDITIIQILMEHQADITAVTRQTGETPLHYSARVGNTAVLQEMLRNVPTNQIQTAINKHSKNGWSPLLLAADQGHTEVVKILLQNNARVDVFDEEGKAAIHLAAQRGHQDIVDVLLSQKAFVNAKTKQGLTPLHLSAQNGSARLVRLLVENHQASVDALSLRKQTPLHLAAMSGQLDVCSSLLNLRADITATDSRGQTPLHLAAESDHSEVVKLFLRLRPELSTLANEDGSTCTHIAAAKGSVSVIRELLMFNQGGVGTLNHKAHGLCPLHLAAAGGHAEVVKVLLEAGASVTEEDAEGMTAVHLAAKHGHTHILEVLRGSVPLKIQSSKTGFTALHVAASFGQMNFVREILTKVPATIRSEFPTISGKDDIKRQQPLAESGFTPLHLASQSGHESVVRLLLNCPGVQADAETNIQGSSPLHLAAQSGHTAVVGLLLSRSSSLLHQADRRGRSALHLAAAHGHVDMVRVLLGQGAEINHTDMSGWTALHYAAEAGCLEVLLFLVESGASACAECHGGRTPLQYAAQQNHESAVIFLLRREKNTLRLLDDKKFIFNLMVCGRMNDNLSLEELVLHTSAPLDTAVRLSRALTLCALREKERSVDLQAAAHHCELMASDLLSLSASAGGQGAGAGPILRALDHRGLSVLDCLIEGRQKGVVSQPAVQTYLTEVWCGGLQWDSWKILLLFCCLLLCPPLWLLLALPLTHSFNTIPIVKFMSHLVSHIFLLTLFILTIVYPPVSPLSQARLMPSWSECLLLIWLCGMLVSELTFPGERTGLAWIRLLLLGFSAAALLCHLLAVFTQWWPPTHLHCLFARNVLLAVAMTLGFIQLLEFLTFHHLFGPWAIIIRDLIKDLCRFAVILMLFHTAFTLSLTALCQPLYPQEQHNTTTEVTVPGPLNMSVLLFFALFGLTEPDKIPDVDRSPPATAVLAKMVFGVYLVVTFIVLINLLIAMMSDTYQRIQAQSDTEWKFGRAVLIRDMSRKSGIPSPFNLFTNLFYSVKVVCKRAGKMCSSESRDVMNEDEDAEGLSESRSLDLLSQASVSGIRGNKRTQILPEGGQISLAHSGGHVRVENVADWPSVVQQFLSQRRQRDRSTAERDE

Mucolipin-3 = molecular target: T5, Mucolipin-3 (Homo sapiens, UniProt Q8TDD5); test: Fluorescence counterscreen assay for […] agonists: dose response cell-based high-throughput screening assay to identify agonists of the transient receptor potential channel ML3 (TRPML3). [Related pubchem assays: 1424, 1448 ]; format: functional
T5 sequence (Q8TDD5 whole entry): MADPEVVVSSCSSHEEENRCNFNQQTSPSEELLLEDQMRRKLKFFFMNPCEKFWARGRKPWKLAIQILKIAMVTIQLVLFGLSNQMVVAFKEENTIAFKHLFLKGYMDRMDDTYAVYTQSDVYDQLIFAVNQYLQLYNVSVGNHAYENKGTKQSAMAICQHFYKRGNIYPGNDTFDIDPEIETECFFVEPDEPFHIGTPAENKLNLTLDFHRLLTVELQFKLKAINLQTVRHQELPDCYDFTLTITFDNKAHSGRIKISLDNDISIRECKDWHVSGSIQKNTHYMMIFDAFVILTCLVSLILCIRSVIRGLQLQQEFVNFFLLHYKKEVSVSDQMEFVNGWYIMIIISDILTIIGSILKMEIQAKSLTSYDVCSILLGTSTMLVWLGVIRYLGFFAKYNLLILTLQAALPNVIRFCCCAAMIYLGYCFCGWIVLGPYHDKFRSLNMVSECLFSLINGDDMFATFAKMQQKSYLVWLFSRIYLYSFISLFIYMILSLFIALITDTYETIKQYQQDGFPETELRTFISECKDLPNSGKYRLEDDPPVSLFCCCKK

[8] = molecular target: T6, Delta-type opioid receptor (Homo sapiens, UniProt P41143); test: HTS Image-Based Screen for Antagonists of the DOR Receptor. [Related pubchem assays (depositor defined):AID1777, AID1785, AID1786, AID2133]; format: functional
T6 sequence (P41143 whole entry): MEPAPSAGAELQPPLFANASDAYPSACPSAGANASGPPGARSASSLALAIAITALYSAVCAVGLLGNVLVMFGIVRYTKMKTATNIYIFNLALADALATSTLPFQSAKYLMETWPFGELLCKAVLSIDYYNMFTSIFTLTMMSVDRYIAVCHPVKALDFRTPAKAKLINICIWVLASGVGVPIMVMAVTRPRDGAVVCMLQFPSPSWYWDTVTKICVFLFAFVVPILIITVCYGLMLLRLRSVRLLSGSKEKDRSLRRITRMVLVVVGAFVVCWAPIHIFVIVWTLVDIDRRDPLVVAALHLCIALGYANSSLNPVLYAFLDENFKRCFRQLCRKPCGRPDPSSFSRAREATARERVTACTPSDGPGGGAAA

Mu-type opioid receptor = Mu-type opioid receptor (Homo sapiens, UniProt P35372); test: HTS Image-Based Screen for Agonists of the MOR Receptor. [Related pubchem assays (depositor defined):AID1777, AID1785, AID1786, AID2133]; format: functional;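 further: imaging of beta-arrestin GFP recruitment into spots after receptor activation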
Mu-type opioid receptor, sequence (P35372 whole entry): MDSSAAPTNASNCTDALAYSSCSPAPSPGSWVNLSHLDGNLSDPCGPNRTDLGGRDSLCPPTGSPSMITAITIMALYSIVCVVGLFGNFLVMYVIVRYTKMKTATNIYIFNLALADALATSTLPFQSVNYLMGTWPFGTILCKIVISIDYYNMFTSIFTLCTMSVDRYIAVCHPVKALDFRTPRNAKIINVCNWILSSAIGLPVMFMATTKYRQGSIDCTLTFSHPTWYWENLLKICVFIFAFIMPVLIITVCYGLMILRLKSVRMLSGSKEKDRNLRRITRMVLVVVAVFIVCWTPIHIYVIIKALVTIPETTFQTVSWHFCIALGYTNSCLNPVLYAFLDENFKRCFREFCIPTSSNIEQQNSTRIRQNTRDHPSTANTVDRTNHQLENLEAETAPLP

[9] = molecular target: T6, Delta-type opioid receptor; test: HTS Image-Based Screen for Agonists of the DOR Receptor. [Related pubchem assays (depositor defined):AID1777, AID1786, AID2133]; format: functional
[10] = molecular target: T7, Kappa-type opioid receptor (Homo sapiens, UniProt P41145); format: functional
T7 sequence (P41145 whole entry): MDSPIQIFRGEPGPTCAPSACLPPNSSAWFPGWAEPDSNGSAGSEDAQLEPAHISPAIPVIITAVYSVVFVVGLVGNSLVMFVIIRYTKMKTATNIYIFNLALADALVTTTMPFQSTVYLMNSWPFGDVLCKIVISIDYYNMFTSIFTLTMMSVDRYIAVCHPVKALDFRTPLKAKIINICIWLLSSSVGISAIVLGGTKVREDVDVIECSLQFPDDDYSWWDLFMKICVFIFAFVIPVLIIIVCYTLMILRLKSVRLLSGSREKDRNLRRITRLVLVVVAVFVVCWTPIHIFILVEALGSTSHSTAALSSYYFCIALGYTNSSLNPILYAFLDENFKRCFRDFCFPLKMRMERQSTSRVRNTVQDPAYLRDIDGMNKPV

Beta-galactosidase = Beta-galactosidase (Escherichia coli, UniProt Q8VNN2); format: functional
Beta-galactosidase, sequence (Q8VNN2 whole entry): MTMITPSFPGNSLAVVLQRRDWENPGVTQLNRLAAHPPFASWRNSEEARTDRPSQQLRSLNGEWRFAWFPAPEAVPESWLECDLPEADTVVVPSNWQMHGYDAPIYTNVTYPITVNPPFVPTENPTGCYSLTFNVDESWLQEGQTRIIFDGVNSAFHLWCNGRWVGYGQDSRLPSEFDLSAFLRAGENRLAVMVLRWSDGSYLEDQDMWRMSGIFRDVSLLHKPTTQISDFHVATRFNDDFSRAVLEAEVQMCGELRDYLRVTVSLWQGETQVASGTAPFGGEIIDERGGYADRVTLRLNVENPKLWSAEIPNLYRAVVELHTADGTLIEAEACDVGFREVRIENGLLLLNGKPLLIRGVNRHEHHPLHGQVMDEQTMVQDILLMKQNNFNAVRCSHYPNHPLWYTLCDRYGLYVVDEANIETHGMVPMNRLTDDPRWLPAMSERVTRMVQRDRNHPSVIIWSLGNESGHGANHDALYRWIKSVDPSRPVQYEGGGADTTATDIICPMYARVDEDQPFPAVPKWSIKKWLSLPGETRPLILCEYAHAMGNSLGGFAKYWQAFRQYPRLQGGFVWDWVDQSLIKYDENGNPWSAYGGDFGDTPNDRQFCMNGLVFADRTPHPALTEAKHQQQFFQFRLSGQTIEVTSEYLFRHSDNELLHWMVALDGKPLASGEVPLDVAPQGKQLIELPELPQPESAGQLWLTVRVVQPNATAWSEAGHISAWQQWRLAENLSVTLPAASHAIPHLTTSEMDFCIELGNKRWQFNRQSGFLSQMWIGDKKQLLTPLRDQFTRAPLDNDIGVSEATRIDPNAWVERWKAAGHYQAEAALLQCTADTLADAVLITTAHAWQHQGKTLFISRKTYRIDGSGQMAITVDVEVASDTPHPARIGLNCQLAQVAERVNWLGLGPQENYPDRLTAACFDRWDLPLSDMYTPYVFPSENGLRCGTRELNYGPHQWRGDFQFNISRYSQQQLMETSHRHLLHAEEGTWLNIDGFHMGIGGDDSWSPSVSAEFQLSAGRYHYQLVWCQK

[11] = molecular target: T7, Kappa-type opioid receptor; format: functional; remark: listed apart in the source
Cytochrome P450 2D6 = Cytochrome P450 2D6 (Homo sapiens, UniProt P10635);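 further: CYP2D6 member of a cytochrome P450 panel assay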
Cytochrome P450 2D6, sequence (P10635 whole entry): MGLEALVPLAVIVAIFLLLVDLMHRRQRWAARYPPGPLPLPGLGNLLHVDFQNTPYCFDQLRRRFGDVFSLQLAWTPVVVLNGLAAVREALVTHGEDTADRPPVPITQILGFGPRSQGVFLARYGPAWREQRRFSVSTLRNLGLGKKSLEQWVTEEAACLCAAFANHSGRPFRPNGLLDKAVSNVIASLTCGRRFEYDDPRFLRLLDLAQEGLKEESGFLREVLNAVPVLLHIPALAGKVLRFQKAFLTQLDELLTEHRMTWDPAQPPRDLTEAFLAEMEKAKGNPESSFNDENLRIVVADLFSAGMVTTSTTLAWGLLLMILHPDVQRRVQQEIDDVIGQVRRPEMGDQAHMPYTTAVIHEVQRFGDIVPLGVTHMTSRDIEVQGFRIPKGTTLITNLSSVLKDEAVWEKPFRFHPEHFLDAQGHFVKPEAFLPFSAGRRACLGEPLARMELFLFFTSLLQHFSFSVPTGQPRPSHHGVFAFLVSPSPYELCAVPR

O=C(c1ccc(O)cc1)c1ccc(C(=O)O)c(C(=O)O)c1
EC50 [1]: > 195 µM (not active)
IC50 [2]: > 100 µM (inactive)
IC50 [3]: > 100 µM (not active)

COc1cccc(/C=C2\SC(=S)N(CCC(=O)N3CCCCC3)C2=O)c1
CC50 [4]: 18.6 µM (active)
CC50 [5]: 8.75 µM (active)
IC50 (cells): 17.2 µM (active)

CC(C)/C=C1\CC/C(=C\c2ccc(N(C)C)cc2)C1=O
EC50 [6]: > 300 µM (not active)
EC50 [7]: > 300 µM (inconclusive)
EC50 (Ion channel NompC): 0.507 µM (active)
EC50 (Mucolipin-3): 1.9 µM (active)

COc1ccc(-c2csc(N3C(=N)SCC3=O)n2)cc1
IC50 [8]: > 32 µM (inactive)
EC50 (Mu-type opioid receptor): > 32 µM (inactive)
EC50 [9]: > 32 µM (inactive)
IC50 [10]: 12.8 µM (active)
EC50 (Beta-galactosidase): > 31.5 µM (inactive)
pIC50 [11]: < 4.49
AC50 (Cytochrome P450 2D6): 11.2 µM (inconclusive)
